Reference: PubChem BioAssay (NCI)
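Method: 48-hour compound exposure of cells in 96-well plates, five concentrations, linear interpolation of endpoints. GI50: concentration for 50% inhibition of growth. At the TGI there is no net growth.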

How the values were obtained:
Experiment in all cases: growth of human tumour cells (NCI), 48 h
SF-268 CNS = system: SF-268 CNS
M14 melanoma = system: M14 melanoma
PC-3 prostate = system: PC-3 prostate
A498 renal = system: A498 renal
IGROV1 ovarian = system: IGROV1 ovarian
UACC-257 melanoma = system: UACC-257 melanoma
NCI-H460 lung = system: NCI-H460 lung
RPMI-8226 leukemia = system: RPMI-8226 leukemia
CCRF-CEM leukemia = system: CCRF-CEM leukemia
K-562 leukemia = system: K-562 leukemia
SF-539 CNS = system: SF-539 CNS
HL-60(TB) leukemia = system: HL-60(TB) leukemia
SK-MEL-28 melanoma = system: SK-MEL-28 melanoma
A549 NSCLC = system: A549 NSCLC
MCF7 breast = system: MCF7 breast
SR leukemia = system: SR leukemia
SW-620 colon = system: SW-620 colon
OVCAR-5 ovarian = system: OVCAR-5 ovarian
MDA-MB-231 breast = system: MDA-MB-231 breast
HS 578T breast = system: HS 578T breast
UO-31 renal = system: UO-31 renal
BT-549 breast = system: BT-549 breast
KM12 colon = system: KM12 colon
COLO 205 colon = system: COLO 205 colon
CAKI-1 renal = system: CAKI-1 renal
OVCAR-3 ovarian = system: OVCAR-3 ovarian
MDA-MB-435 = system: MDA-MB-435
HOP-62 NSCLC = system: HOP-62 NSCLC
RXF 393 renal = system: RXF 393 renal
TK-10 renal = system: TK-10 renal
NCI-H23 lung = system: NCI-H23 lung
786-0 renal = system: 786-0 renal
OVCAR-8 ovarian = system: OVCAR-8 ovarian
NCI/ADR-RES ovarian = system: NCI/ADR-RES ovarian
LOX IMVI melanoma = system: LOX IMVI melanoma
ACHN renal = system: ACHN renal
OVCAR-4 ovarian = system: OVCAR-4 ovarian
MOLT-4 leukemia = system: MOLT-4 leukemia
MALME-3M melanoma = system: MALME-3M melanoma
SNB-75 CNS = system: SNB-75 CNS
HT29 colon = system: HT29 colon
SNB-19 CNS = system: SNB-19 CNS
U251 CNS = system: U251 CNS
SK-MEL-5 melanoma = system: SK-MEL-5 melanoma
HCT-15 colon = system: HCT-15 colon
T-47D breast = system: T-47D breast
UACC-62 melanoma = system: UACC-62 melanoma
SF-295 CNS = system: SF-295 CNS
HCC-2998 colon = system: HCC-2998 colon
SN12C renal = system: SN12C renal
HCT-116 colon = system: HCT-116 colon
NCI-H522 lung = system: NCI-H522 lung
NCI-H226 lung = system: NCI-H226 lung
SK-OV-3 ovarian = system: SK-OV-3 ovarian
SK-MEL-2 melanoma = system: SK-MEL-2 melanoma
DU-145 prostate = system: DU-145 prostate
EKVX NSCLC = system: EKVX NSCLC

Compound `Oc1c(CN2CCCCC2)ccc2cccnc12` has a GI50 (SF-268 CNS) of 6.07 µM, a TGI (SF-268 CNS) of over 100 µM and a GI50 (M14 melanoma) of 2.3 µM. The TGI (M14 melanoma) was 8.06 µM, the GI50 (PC-3 prostate) was 7.12 µM and the TGI (PC-3 prostate) was over 100 µM. The GI50 (A498 renal) was 5.46 µM, the TGI (A498 renal) was 21.3 µM and the GI50 (IGROV1 ovarian) was 2.52 µM. It also gave a TGI (IGROV1 ovarian) of 7.8 µM, a GI50 (UACC-257 melanoma) of 2.91 µM and a TGI (UACC-257 melanoma) of 83.3 µM. The GI50 (NCI-H460 lung) was 2.31 µM, the TGI (NCI-H460 lung) was 7.62 µM and the GI50 (RPMI-8226 leukemia) was 3.71 µM. It also gave a TGI (RPMI-8226 leukemia) of 31 µM, a GI50 (CCRF-CEM leukemia) of 3.21 µM and a TGI (CCRF-CEM leukemia) of over 100 µM. The GI50 (K-562 leukemia) was 3.63 µM, the TGI (K-562 leukemia) was over 100 µM and the GI50 (SF-539 CNS) was 4.89 µM. For the same compound, the TGI (SF-539 CNS) was 39.5 µM, the GI50 (HL-60(TB) leukemia) was 3.34 µM and the TGI (HL-60(TB) leukemia) was 12.8 µM. For the same compound, the GI50 (SK-MEL-28 melanoma) was 9.23 µM, the TGI (SK-MEL-28 melanoma) was over 100 µM and the GI50 (A549 NSCLC) was 3.72 µM. It also gave a TGI (A549 NSCLC) of 28.1 µM, a GI50 (MCF7 breast) of 3.38 µM and a TGI (MCF7 breast) of 14.8 µM. It also gave a GI50 (SR leukemia) of 3.36 µM, a TGI (SR leukemia) of over 100 µM and a GI50 (SW-620 colon) of 4.26 µM. For the same compound, the TGI (SW-620 colon) was 18 µM, the GI50 (OVCAR-5 ovarian) was 5.23 µM and the TGI (OVCAR-5 ovarian) was 76.9 µM. The GI50 (MDA-MB-231 breast) was 4.79 µM, the TGI (MDA-MB-231 breast) was over 100 µM and the GI50 (HS 578T breast) was 11.1 µM. It also gave a TGI (HS 578T breast) of over 100 µM, a GI50 (UO-31 renal) of 0.566 µM and a TGI (UO-31 renal) of 5.42 µM. For the same compound, the GI50 (BT-549 breast) was 10.4 µM, the TGI (BT-549 breast) was over 100 µM and the GI50 (KM12 colon) was 3.91 µM. For the same compound, the TGI (KM12 colon) was 19.6 µM, the GI50 (COLO 205 colon) was 3.64 µM and the TGI (COLO 205 colon) was 15 µM. It also gave a GI50 (CAKI-1 renal) of 0.52 µM, a TGI (CAKI-1 renal) of 3.23 µM and a GI50 (OVCAR-3 ovarian) of 2.41 µM. It also gave a TGI (OVCAR-3 ovarian) of 8.22 µM, a GI50 (MDA-MB-435) of 4.65 µM and a TGI (MDA-MB-435) of 21.4 µM. The GI50 (HOP-62 NSCLC) was 3.75 µM, the TGI (HOP-62 NSCLC) was 54.3 µM and the GI50 (RXF 393 renal) was 4.15 µM. The TGI (RXF 393 renal) was 34.8 µM, the GI50 (TK-10 renal) was 3.98 µM and the TGI (TK-10 renal) was 42.9 µM. For the same compound, the GI50 (NCI-H23 lung) was 6.84 µM, the TGI (NCI-H23 lung) was 36.1 µM and the GI50 (786-0 renal) was 2.72 µM. It also gave a TGI (786-0 renal) of over 100 µM, a GI50 (OVCAR-8 ovarian) of 3.18 µM and a TGI (OVCAR-8 ovarian) of 22.8 µM. The GI50 (NCI/ADR-RES ovarian) was 0.955 µM, the TGI (NCI/ADR-RES ovarian) was 10.9 µM and the GI50 (LOX IMVI melanoma) was 3.6 µM. It also gave a TGI (LOX IMVI melanoma) of 17.3 µM, a GI50 (ACHN renal) of 1.87 µM and a TGI (ACHN renal) of over 100 µM. It also gave a GI50 (OVCAR-4 ovarian) of 2.98 µM, a TGI (OVCAR-4 ovarian) of 9.59 µM and a GI50 (MOLT-4 leukemia) of 3.97 µM. For the same compound, the TGI (MOLT-4 leukemia) was over 100 µM, the GI50 (MALME-3M melanoma) was 7.18 µM and the TGI (MALME-3M melanoma) was 52.5 µM. For the same compound, the GI50 (SNB-75 CNS) was 5.67 µM, the TGI (SNB-75 CNS) was 74.3 µM and the GI50 (HT29 colon) was 4.88 µM. The TGI (HT29 colon) was 19.6 µM, the GI50 (SNB-19 CNS) was 8.86 µM and the TGI (SNB-19 CNS) was over 100 µM. It also gave a GI50 (U251 CNS) of 3.61 µM, a TGI (U251 CNS) of 30.9 µM and a GI50 (SK-MEL-5 melanoma) of 3.56 µM. It also gave a TGI (SK-MEL-5 melanoma) of 42.6 µM, a GI50 (HCT-15 colon) of 0.728 µM and a TGI (HCT-15 colon) of 82.9 µM. For the same compound, the GI50 (T-47D breast) was 3.63 µM, the TGI (T-47D breast) was 31 µM and the GI50 (UACC-62 melanoma) was 3.95 µM. For the same compound, the TGI (UACC-62 melanoma) was 51.4 µM, the GI50 (SF-295 CNS) was 2.69 µM and the TGI (SF-295 CNS) was 15.4 µM. It also gave a GI50 (HCC-2998 colon) of 6.6 µM, a TGI (HCC-2998 colon) of 32.8 µM and a GI50 (SN12C renal) of 4.62 µM. It also gave a TGI (SN12C renal) of over 100 µM, a GI50 (HCT-116 colon) of 2.73 µM and a TGI (HCT-116 colon) of 9.18 µM. For the same compound, the GI50 (NCI-H522 lung) was 3.6 µM, the TGI (NCI-H522 lung) was 10.9 µM and the GI50 (NCI-H226 lung) was 2.41 µM. For the same compound, the TGI (NCI-H226 lung) was 16 µM, the GI50 (SK-OV-3 ovarian) was 4.33 µM and the TGI (SK-OV-3 ovarian) was 25 µM. The GI50 (SK-MEL-2 melanoma) was 4.03 µM, the TGI (SK-MEL-2 melanoma) was 24.4 µM and the GI50 (DU-145 prostate) was 5.42 µM. For the same compound, the TGI (DU-145 prostate) was 36.4 µM, the GI50 (EKVX NSCLC) was 3.26 µM and the TGI (EKVX NSCLC) was 37.4 µM.
